Here are results for 20 compounds from patent US20260265248A1, “NOVEL PD-L1 INHIBITORS” (AFFIRMA BIOTECH S. L., priority 2023, published 2026).

The target of this experiment is T1, PD-1/PD-L1 (Homo sapiens, UniProt Q9NZQ7).
T1 construct: purchased CisBio
Kind of experiment: PD1-PDL1 HTRF assay. As to conditions: PD-1/PD-L1 homogenous time-resolved fluorescence (HTRF) binding assay; Tag1-PDL1 5 nM, Tag2-PD1 50 nM. An excerpt: The CisBio HTRF assay kit, purchased from CisBio only, was employed to determine the IC50 values of compounds. The PD1-PDL1 HTRF assay measures the interactions between the two proteins, PD1 and PDL1. The interaction is detected by using anti-Tag1 labeled with Europium (HTRF donor) which binds to PDL1 and anti-Tag2 labeled with XL665 (HTRF acceptor) which binds to PD1. When the two antibodies are in proximity, the excitation of the donor fluorophore results in FRET emission from the acceptor fluorophore. The presence of inhibitors for such an interaction result in reduction of HTRF signal.
The assay was conducted in 96-well white assay plates. All the reagents, including Tag1-PDL1, Tag2-PD1, Anti-Tag1-PDL1, Anti-Tag2-PD1 were thawed and diluted with PPI Europium Detection buffer to achieve the desired concentration as per the manufacturer's protocol. A 1000 μM stock solution of test inhibitors was prepared in DMSO. The stock solution was diluted in DMSO to prepare 8 concentrations (1000-0.001 μM). These stock solutions were further diluted in PPI Europium detection buffer to prepare 8 working stock solutions (100-0.0001 μM). To the 96-well plate, 2 μL of the test inhibitor working stock solutions were added followed by 4 μL of Tag1-PDL1 (5 nM) and 4 μL of Tag2-PD1 (50 nM). The plate was incubated at room temperature for 15 min. Subsequently, 10 μL of pre-mixed Anti-Tag1-PDL1 and Anti-Tag2-PD1 solution was added. The plate was sealed and incubated at room temperature for 1 h. The HTRF signal was read on Perkin Elmer Envision plate reader using excitation wavelength of 320 nm, emission wavelengths of 620 nm and 665 nm. Results were obtained by calculating the ratio of signal from acceptor at 665 nm to that of signal from donor at 620 nm multiplied by […]. The IC50 values were determined by the Hill equation using GraphPad Prism software.
Background: Time-resolved FRET reads energy transfer from a long-lived donor to a nearby acceptor.

T1 sequence (Q9NZQ7 19-238 limits assumed): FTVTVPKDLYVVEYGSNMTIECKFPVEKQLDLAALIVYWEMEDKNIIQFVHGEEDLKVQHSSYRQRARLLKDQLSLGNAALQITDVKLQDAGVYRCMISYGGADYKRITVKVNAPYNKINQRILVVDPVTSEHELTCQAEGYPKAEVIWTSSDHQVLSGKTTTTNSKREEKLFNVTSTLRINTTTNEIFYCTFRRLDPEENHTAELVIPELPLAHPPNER

As for `Cc1c(-c2ccc3c(c2)OCCO3)cccc1-c1ccn2c(-c3ccc(CN4C[C@H](O)C[C@H]4C(=O)O)cc3)nnc2c1` [Example 60, (25,4R)-1-(4-(7-(3-(2,3-dihydrobenzo[b][1,4]dioxin-6-yl)-2-methylphenyl)-[1,2,4]triazolo[4,3-a]pyridin-3-yl)benzyl)-4-hydroxypyrrolidine-2-carboxylic acid], the IC50 fell in the range of 0.1 to 1 µM.

`Cc1c(-c2ccc3c(c2)OCCO3)cccc1-c1ccn2c(-c3ccc(CNCCC(=O)O)cc3)nnc2c1` [Example 61, 3-((4-(7-(3-(2,3-dihydrobenzo[b][1,4]dioxin-6-yl)-2-methylphenyl)-[1,2,4]triazolo[4,3-a]pyridin-3-yl)benzyl)amino)propanoic acid]: the IC50 lay within 0.1 to 1 µM.

`Cc1c(-c2ccc(CNCCO)cc2)cccc1-c1cccc(-c2ccn3c(-c4ccc(CN5CCC[C@@H]5C(=O)O)cc4)nnc3c2)c1C` [Example 62, (4-(7-(4″-(((2-hydroxyethyl)amino)methyl)-2,2′-dimethyl-[1,1′:3′,1″-terphenyl]-3-yl)-[1,2,4]triazolo[4,3-a]pyridin-3-yl)benzyl)-D-proline]: the IC50 was at most 0.01 µM.

Regarding `Cc1c(-c2ccn3c(-c4ccc(CN5CCC[C@@H]5C(=O)O)cc4)nnc3c2)cccc1-c1cccc(-c2cnc(CNCCO)cn2)c1C` [Example 63, (4-(7-(3′-(5-(((2-hydroxyethyl)amino)methyl)pyrazin-2-yl)-2,2′-dimethyl-[1,1′-biphenyl]-3-yl)-[1,2,4]triazolo [4,3-α]pyridin-3-yl)benzyl)-D-proline], the IC50 is 0.01 to 0.1 µM.

`Cc1c(-c2ccc(CNCCO)cc2)cccc1-c1cccc(-c2ccn3c(-c4ccc(CN5CCC[C@H]5C(=O)O)cc4)nnc3c2)c1C` [Example 64, (4-(7-(4″-(((2-hydroxyethyl)amino)methyl)-2,2′-dimethyl-[1,1′:3′,1″-terphenyl]-3-yl)-[1,2,4]triazolo[4,3-α]pyridin-3-yl)benzyl)-L-proline] returned an IC50 of at most 0.01 µM.

`Cc1c(-c2ccc(CNCCO)cc2)cccc1-c1cccc(-c2ccn3c(-c4ccc(CN5CC[C@@H](C(=O)O)C5)cc4)nnc3c2)c1C` [Example 65, (R)-1-(4-(7-(4″-(((2-hydroxyethyl)amino)methyl)-2,2′-dimethyl-[1,1′:3′,1″-terphenyl]-3-yl)-[1,2,4]triazolo[4,3-α]pyridin-3-yl)benzyl)pyrrolidine-3-carboxylic acid] yielded a half-inhibitory concentration (IC50) of 0.01 to 0.1 µM.

On to `OCCNCc1ccc(-c2cccc(-c3cccc(-c4ccn5c(-c6ccc(CNCCO)cc6)nnc5c4)c3Cl)c2Cl)cc1` [Example 66, 2-(((2′,2″-dichloro-3″-(3-(4-(((2-hydroxyethyl)amino)methyl)phenyl)-[1,2,4]triazolo[4,3-a]pyridin-7-yl)-[1,1′:3′,1″-terphenyl]-4-yl)methyl)amino)ethan-1-ol], for which the 50% inhibitory concentration (IC50) lay in the range of 0.01 to 0.1 µM.

The compound `O=C(O)[C@H]1CCCN1Cc1ccc(-c2nnc3cc(-c4cccc(-c5cccc(-c6ccc(CNCCO)cc6)c5Cl)c4Cl)ccn23)cc1` [Example 67, (4-(7-(2,2′-dichloro-4″-(((2-hydroxyethyl)amino)methyl)-[1,1′:3′,1″-terphenyl]-3-yl)-[1,2,4]triazolo[4,3-a]pyridin-3-yl)benzyl)-D-proline] had an IC50 of at most 0.01 µM.

In turn, `Cc1c(NC(=O)c2ccc(CNCCO)cn2)cccc1-c1cccc(-c2ccn3c(-c4ccc(CN5CCC[C@@H]5C(=O)O)cc4)nnc3c2)c1C` [Example 68, (4-(7-(3′-(5-(((2-hydroxyethyl)amino)methyl)picolinamido)-2,2′-dimethyl-[1,1′-biphenyl]-3-yl)-[1,2,4]triazolo[4,3-a]pyridin-3-yl)benzyl)-D-proline] showed a concentration for half-maximal inhibition (IC50) of at most 0.01 µM.

In the case of `Cc1c(NC(=O)c2ccc(CNCCO)cn2)cccc1-c1cccc(-c2ccn3c(-c4ccc(CN5CCC[C@H]5C(=O)O)cc4)nnc3c2)c1C` [Example 69, (4-(7-(31-(5-(((2-hydroxyethyl)amino)methyl)picolinamido)-2,2′-dimethyl-[1,1′-biphenyl]-3-yl)-[1,2,4]triazolo [4,3-α]pyridin-3-yl)benzyl)-L-proline], the half-maximal inhibitory concentration (IC50) was at most 0.01 µM.

Compound `Cc1c(NC(=O)c2ccc(CNCCO)cn2)cccc1-c1cccc(-c2ccn3c(-c4ccc(CNCCO)cc4)nnc3c2)c1C` [Example 70, 5-(((2-hydroxyethyl)amino)methyl)-N-(3′-(3-(4-(((2-hydroxyethyl)amino)methyl)phenyl)-[1,2,4]triazolo[4,3-a]pyridin-7-yl)-2,2′-dimethyl-[1,1′-biphenyl]-3-yl)picolinamide] registered a concentration for half-maximal inhibition (IC50) of at most 0.01 µM.

With `Cc1c(NC(=O)c2ccc(CNC[C@H]3CCC(=O)N3)cn2)cccc1-c1cccc(-c2ccn3c(-c4ccc(CNC[C@H]5CCC(=O)N5)cc4)nnc3c2)c1C` [Example 71, N-(2,2′-dimethyl-31-(3-(4-(((((R)-5-oxopyrrolidin-2-yl)methyl)amino)methyl)phenyl)-[1,2,4]triazolo[4,3-α]pyridin-7-yl)-[1,1′-biphenyl]-3-yl)-5-(((((R)-5-oxopyrrolidin-2-yl)methyl)amino)methyl)picolinamide], the IC50 was 0.01 to 0.1 µM.

For `COCCNCc1ccc(-c2nnc3cc(-c4cccc(-c5cccc(NC(=O)c6ccc(CNCCO)cn6)c5C)c4C)ccn23)cc1` [Example 72, 5-(((2-hydroxyethyl)amino)methyl)-N-(3′-(3-(4-(((2-methoxyethyl)amino)methyl)phenyl)-[1,2,4]triazolo[4,3-α]pyridin-7-yl)-2,2′-dimethyl-[1,1′-biphenyl]-3-yl)picolinamide], the IC50 is at most 0.01 µM.

With `Cc1c(-c2ccn3c(-c4ccc(CN5CCC[C@@H]5C(=O)O)cc4)nnc3c2)cccc1-c1cccc(-c2ccn3c(-c4ccc(CN5CCC[C@@H]5C(=O)O)cc4)nnc3c2)c1C` [Example 73, (2′R)-((((2,2′-dimethyl-[1,1′-biphenyl]-3,3′-diyl)bis ([1,2,4]triazolo[4,3-ci]pyridine-7,3-diyl))bis(4,1-phenylene))bis(methylene))di-D-proline], the IC50 fell in the range of 0.01 to 0.1 µM.

With `Cc1c(-c2ccc(CNC[C@@H]3CCC(=O)N3)cc2)cccc1-c1cccc(-c2ccn3c(-c4ccc(CNC[C@@H]5CCC(=O)N5)cc4)nnc3c2)c1C` [Example 74, (S)-5-((((2′,2″-dimethyl-3″-(3-(4-(((((S)-5-oxopyrrolidin-2-yl)methyl)amino)methyl)phenyl)-[1,2,4]triazolo[4,3-a]pyridin-7-yl)-[1,1′:3′,1″-terphenyl]-4-yl)methyl)amino)methyl)pyrrolidin-2-one], the IC50 was 0.01 to 0.1 µM.

`Cc1c(-c2ccc(CNCCO)cc2)cccc1-c1cccc(-c2ccn3c(-c4ccc(CNCCO)cc4)nnc3c2)c1C` [Example 75, 2-((4-(7-(4″-(((2-hydroxyethyl)amino)methyl)-2,2′-dimethyl-[1,1′:3′,1″-terphenyl]-3-yl)-[1,2,4]triazolo[4,3-α]pyridin-3-yl)benzyl)amino)ethan-1-ol] had an IC50 of 0.01 to 0.1 µM.

For `Cc1c(-c2ccc(CNC[C@H]3CCC(=O)N3)cc2)cccc1-c1cccc(-c2ccn3c(-c4ccc(CNC[C@H]5CCC(=O)N5)cc4)nnc3c2)c1C` [Example 76, (R)-5-((((2′,2″-dimethyl-3″-(3-(4-(((((R)-5-oxopyrrolidin-2-yl)methyl)amino)methyl)phenyl)-[1,2,4]triazolo[4,3-α]pyridin-7-yl)-[1,1′:3′,1″-terphenyl]-4-yl)methyl)amino)methyl)pyrrolidin-2-one], the IC50 fell in the range of 0.01 to 0.1 µM.

Turning to `COc1nc(-c2cccc(-c3cccc(-c4ccn5c(-c6ccc(CNCCO)cc6)nnc5c4)c3C)c2C)ccc1CNCCO` [Example 77, 2-((4-(7-(3′-(5-(((2-hydroxyethyl)amino)methyl)-6-methoxypyridin-2-yl)-2,2′-dimethyl-[1,1′-biphenyl]-3-yl)-[1,2,4]triazolo[4,3-ai]pyridin-3-yl)benzyl)amino)ethan-1-ol], the IC50 was at most 0.01 µM.

As to `COc1cc(-c2cccc(-c3cccc(-c4ccn5c(-c6ccc(CNCCO)cc6)nnc5c4)c3C)c2C)ccc1CNCCO` [Example 78, 2-((4-(7-(4″-(((2-hydroxyethyl)amino)methyl)-3″-methoxy-2,2′-dimethyl-[1,1′:3′,1″-terphenyl]-3-yl)-[1,2,4]triazolo[4,3-α]pyridin-3-yl)benzyl)amino)ethan-1-ol], the half-maximal inhibitory concentration (IC50) was at most 0.01 µM.

`Cc1c(Nc2nccc3cc(CN4CC[C@@H](O)C4)cnc23)cccc1-c1cccc(-c2ccn3c(-c4ccc(CNC[C@@H]5CCC(=O)N5)cc4)nnc3c2)c1C` [Example 79, (S)-5-(((4-(7-(3′-((3-(((R)-3-hydroxypyrrolidin-1-yl)methyl)-1,7-naphthyridin-8-yl)amino)-2,2′-dimethyl-[1,1′-biphenyl]-3-yl)-[1,2,4]triazolo[4,3-a]pyridin-3-yl)benzyl)amino)methyl)pyrrolidin-2-one] had an IC50 of at most 0.01 µM.

The term IC50 denotes the midpoint of a concentration-inhibition curve. Low readings indicate inhibition by little substance, high ones a need for much substance.
